According to patent US20150004134A1, “TREATMENT OF CANCER WITH HETEROCYCLIC INHIBITORS OF GLUTAMINASE” (Calithera Biosciences, Inc., priority 2012, published 2015):
Where two headings read alike, the source gives them in different places.

Test system: P493-6 (myc "on") cells
Experiment: Cell Proliferation Assay
Assay type: cell-based
Conditions: P493-6, 72 h
Procedure, shortened: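 Read-out: either Cell Titer Glo or Guava Viacount flow analysis after 72 h compound treatment of myc-on P493-6 cells (10,000/well, RPMI with 10% FBS) at 37 °C. DMSO held at 0.5% final.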

[1] = read-out: Cell prolif P493 72 h IC50, P493-6 cells, 72 h

| SMILES | IC50 [1] [nM] | IC50 (read-out: Cell prolif P493 72 h IC50, P493 cells, 72 h) [nM] |
| --- | --- | --- |
| CC(C)(C)OC(=O)NCc1cc(CC(=O)Nc2nnc(CCCCc3ccc(NC(=O)Cc4ccccc4)nn3)s2)ccc1F [Compound 492] | 14 |  |
| CC(C)(C)OC(=O)N1CCN(Cc2cc(CC(=O)Nc3nnc(CCCCc4ccc(NC(=O)Cc5ccccc5)nn4)s3)ccc2F)CC1 [Compound 493] | 57 |  |
| O=C(Cc1ccccc1)Nc1ccc(CCCCc2nnc(NC(=O)Cc3ccc(F)c(CN4CCNCC4)c3)s2)nn1 [Compound 494] | 580 |  |
| CCCCNC(=O)Cc1cccc(CC(=O)Nc2nnc(CCCCc3ccc(NC(=O)Cc4ccccc4)nn3)s2)c1 [Compound 496] | 17 |  |
| O=C(Cc1ccccc1)Nc1ccc(CCCCc2nnc(NC(=O)C(O)c3ccc(-c4ccccc4)cc3OCCO)s2)nn1 (stereo not shown) [Compound 504] | 120 |  |
| CC(C)(C)OC(=O)NCc1cccc(CC(=O)Nc2nnc(CCCCc3ccc(NC(=O)C(O)(CO)c4ccccc4)nn3)s2)c1 (stereo not shown) [Compound 507] | 41 |  |
| COC(C(=O)Nc1ccc(CCCCc2nnc(NC(=O)Cc3cccc(CNC(=O)OC(C)(C)C)c3)s2)nn1)c1ccccc1 (stereo not shown) [Compound 508] | 20 |  |
| COC(C(=O)Nc1nnc(CCCCc2ccc(NC(=O)Cc3cccc(CNC(=O)OC(C)(C)C)c3)nn2)s1)c1ccccc1 (stereo not shown) [Compound 509] | 9 |  |
| O=C(Cc1ccccc1)Nc1ccc(CCCCc2nnc(NC(=O)CC3=CN4CCCN=C4S3)s2)nn1 [Compound 511] | 1100 |  |
| O=C(Cc1ccccc1)Nc1ccc(CCCCc2nnc(NC(=O)Cc3cccc4[nH]ncc34)s2)nn1 [Compound 512] | 46 |  |
| COc1cc(CC(=O)Nc2nnc(CCCCc3ccc(NC(=O)Cc4ccccc4)nn3)s2)ccc1F [Compound 515] | 59 |  |
| O=C(Cc1ccccc1)Nc1nnc(CCCCc2nnc(NC(=O)C(O)c3cccc(Cl)c3)s2)s1 (stereo not shown) [Compound 527] |  | 98 |
| CC(=O)N1CCN(Cc2cc(CC(=O)Nc3nnc(CCCCc4ccc(NC(=O)Cc5ccccc5)nn4)s3)ccc2F)CC1 [Compound 528] | 44 |  |
| CC(C)(C)OC(=O)NCc1cccc(CC(=O)Nc2nnc(CCCCc3ccc(NC(=O)C4(C)COC(C)(C)OC4)nn3)s2)c1 [Compound 529] | 160 |  |
| COc1ccccc1CC(=O)Nc1nnc(CCCCc2ccc(NC(=O)Cc3ccccc3Cl)nn2)s1 [Compound 531] | 42 |  |
| O=C(Cc1ccccc1F)Nc1ccc(CCCCc2nnc(NC(=O)Cc3ccccc3F)s2)nn1 [Compound 534] | 44 |  |
| Cc1ccccc1CC(=O)Nc1nnc(CCCCc2ccc(NC(=O)Cc3ccccc3Cl)nn2)s1 [Compound 535] | 90 |  |
| Cc1ccccc1CC(=O)Nc1nnc(CCCCc2ccc(NC(=O)Cc3ccccc3F)nn2)s1 [Compound 536] | 71 |  |
| COc1cc(CC(=O)Nc2ccc(CCCCc3nnc(NC(=O)Cc4ccccc4)s3)nn2)ccc1F [Compound 537] | 76 |  |
| CC(NC(=O)OC(C)(C)C)c1cccc(CC(=O)Nc2nnc(CCCCc3ccc(NC(=O)Cc4ccccc4)nn3)s2)c1 (stereo not shown) [Compound 541] | 6 |  |
| O=C(Cc1ccccc1)Nc1ccc(CCCCc2nnc(NC(=O)Cc3cccc(Cl)c3F)s2)nn1 [Compound 545] | 46 |  |
| CCOc1ccc(CC(=O)Nc2nnc(CCCCc3ccc(NC(=O)Cc4ccccc4)nn3)s2)cc1OC [Compound 547] | 31 |  |
| CCCC(=O)OCN(C(=O)Cc1cccc(CNC(=O)OC(C)(C)C)c1)c1nnc(CCCCc2ccc(NC(=O)Cc3ccccc3)nn2)s1 [Compound 552] | 5 |  |
| COc1cc(CC(=O)Nc2nnc(CCCCc3ccc(NC(=O)Cc4ccccc4)nn3)s2)ccc1O [Compound 554] | 172 |  |
| CC(C)Cc1ccc(C(C)C(=O)Nc2nnc(CCCCc3ccc(NC(=O)Cc4ccccc4)nn3)s2)cc1 (stereo not shown) [Compound 557] | 120 |  |
| CCCOc1ccc(C(O)C(=O)Nc2nnc(CCCCc3ccc(NC(=O)Cc4ccccc4)nn3)s2)cc1 (stereo not shown) [Compound 558] | 28 |  |
| CC(N)c1cccc(CC(=O)Nc2ccc(CCCCc3nnc(NC(=O)Cc4ccccc4)s3)nn2)c1 (stereo not shown) [Compound 560] | 37 |  |
| O=C(Cc1ccccc1F)Nc1ccc(CCCCc2nnc(NC(=O)Cc3ccccc3Cl)s2)nn1 [Compound 566] | 15 |  |
